Where a name gives a salt, the structure may show the parent alone.
Tests used:
[1] = literature statement; cited from earlier work
[2] = system: Choline acetyltransferase; conditions: cited from earlier work
huCMKLR1 [3] = biological target: T1, huCMKLR1 (Homo sapiens, UniProt Q99788); test: β-arrestin2 (β-ARR2) enzymatic complementation assay, CMKLR1/CHO cells; type: cell-based; parameters: host or cells: CHO; conditions: for IC50: mean±SEM, n = 3-14 independent experiments, read-out: IC50 (µM), β-arrestin, huCMKLR1
T1 sequence (Q99788 1-373): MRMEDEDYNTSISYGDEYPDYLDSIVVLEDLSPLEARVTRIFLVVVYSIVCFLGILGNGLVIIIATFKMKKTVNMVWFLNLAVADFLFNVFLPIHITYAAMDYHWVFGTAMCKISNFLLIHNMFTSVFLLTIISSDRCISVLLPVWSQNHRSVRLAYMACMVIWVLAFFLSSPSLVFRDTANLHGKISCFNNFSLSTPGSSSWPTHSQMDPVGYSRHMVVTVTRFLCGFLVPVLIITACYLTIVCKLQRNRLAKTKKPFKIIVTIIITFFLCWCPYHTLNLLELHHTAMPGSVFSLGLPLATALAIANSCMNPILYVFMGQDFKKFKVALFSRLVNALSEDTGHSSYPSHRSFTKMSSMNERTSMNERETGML
Text: The engagement of a chemoattractant receptor by its cognate ligand stimulates the recruitment of β-arrestin to the carboxyl-terminus of the receptor, an event that results in receptor internalization and termination of G protein-mediated signaling. […] To test this, we used an enzymatic complementation assay (the β-ARR2 assay), whereby the complementary fragments from the β-gal active site are fused to the carboxyl-terminus of CMKLR1 and β-arrestin2. The special association of these molecules leads to enzyme activity, which is detected by a chemiluminescent substrate.

mCMKLR1 = biological target: T2, mCMKLR1 (Mus musculus, UniProt P97468); test: Transwell chemotaxis of mCMKLR1/L1.2 transfectants to chemerin
T2 sequence (P97468 1-371): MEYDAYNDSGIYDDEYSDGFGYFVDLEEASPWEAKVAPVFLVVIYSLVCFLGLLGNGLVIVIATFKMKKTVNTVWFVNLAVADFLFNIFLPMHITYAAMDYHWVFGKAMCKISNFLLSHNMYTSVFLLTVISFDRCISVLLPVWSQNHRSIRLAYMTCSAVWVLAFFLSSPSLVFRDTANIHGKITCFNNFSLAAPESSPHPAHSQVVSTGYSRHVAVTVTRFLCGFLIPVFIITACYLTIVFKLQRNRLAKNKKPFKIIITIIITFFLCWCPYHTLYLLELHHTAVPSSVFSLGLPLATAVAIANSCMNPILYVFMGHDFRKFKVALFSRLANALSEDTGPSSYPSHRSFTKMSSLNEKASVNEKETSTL

huCMKLR1 [4] = biological target: T1, huCMKLR1; test: Transwell chemotaxis of huCMKLR1/L1.2 transfectants to chemerin

## COC(=O)/C=C/C(=O)O [monomethyl fumarate]
[1]
  bound by serum proteins: 30%

## CN(C)CCC(=O)c1cccc2ccccc12 [α-NEDA, 2-(α-naphthoyl)ethyldimethylamine]
[2]
  fold less potent than α-NETA in inhibiting ChAT enzyme activity: 7 fold
huCMKLR1 [3]; chemerin-stimulated β-ARR2 association with CMKLR1 or CMKLR1+ cell migration
  fold less potent than α-NETA: 10–20 fold
huCMKLR1 [3]
  IC50: 7.5 ± 0.74 µM
mCMKLR1
  IC50: 78 ± 22 µM
huCMKLR1 [4]
  IC50: 77 ± 23 µM

## c1ccc2ccccc2c1 [naphthalene, reference compound]
huCMKLR1 [3]
  IC50: > 10 µM
huCMKLR1 [3]; β-ARR2 and transwell migration assays
  inhibitory activity in the in vitro assays: no inhibitory activity
mCMKLR1
  IC50: > 100 µM
huCMKLR1 [4]
  IC50: > 100 µM

— article PMC4249827, “A Novel CMKLR1 Small Molecule Antagonist Suppresses CNS Autoimmune Inflammatory Disease” (PLoS ONE, 2014)
